Experimental data as given in ChEMBL document CHEMBL3396981, “Synthesis and in vitro biological evaluation of 2-(phenylcarbamoyl)phenyl 4-substituted benzoates” (Bioorg Med Chem, 2015).
In brackets after ≈: the same amount, converted by molar mass. Activity calls are given as the source filed them. The calls are words filed in the database; no cut-off is given here.

How the values were obtained:
[1] = tested on: HepG2; experiment: Cytostatic activity against human HepG2 cells after 72 hrs by MTT assay; type: functional, cell-based; settings: HepG2, 72 h
[2] = tested on: Mycobacterium tuberculosis; experiment: Antimycobacterial activity against Mycobacterium tuberculosis H37Rv 331/88 after 14 days by microdilution method; type: functional; settings: H37Rv 331/88, 336 h
[3] = tested on: Mycobacterium avium; experiment: Antimycobacterial activity against INH,RIF,OFX,EMB-resistant Mycobacterium avium 330/88 after 21 days by microdilution method; type: functional; settings: 330/88, 504 h
[4] = tested on: Staphylococcus aureus; experiment: Antibacterial activity against methicillin-resistant Staphylococcus aureus H 5996/08 after 48 hrs by broth microdilution method; type: functional; settings: H 5996/08, 48 h
[5] = tested on: Trichosporon asahii; experiment: Antifungal activity against Trichosporon asahii 1188 after 48 hrs by broth microdilution method; type: functional; settings: Trichosporon asahii, 1188, 48 h
[6] = Selectivity index, ratio of IC50 for human HepG2 cells to MIC for atypical mycobacteria
[7] = Selectivity index, ratio of IC50 for human HepG2 cells to MIC for Mycobacterium tuberculosis; type: toxicity, cell-based; settings: read-out: Selectivity Index
[8] = tested on: Staphylococcus epidermidis; experiment: Antibacterial activity against Staphylococcus epidermidis H 6966/08 after 48 hrs by broth microdilution method; type: functional; settings: H 6966/08, 48 h
[9] = tested on: Enterococcus sp.; experiment: Antibacterial activity against Enterococcus sp. J 14365/08 after 24 hrs by broth microdilution method; type: functional; settings: J 14365/08, 24 h
[10] = tested on: Candida albicans; experiment: Antifungal activity against Candida albicans ATCC 44859 after 24 to 48 hrs by broth dilution method; type: functional, organism-based
[11] = tested on: Candida tropicalis; experiment: Antifungal activity against Candida tropicalis 156 after 24 to 48 hrs by broth dilution method; type: functional, organism-based
[12] = tested on: Mycobacterium kansasii; experiment: Antimycobacterial activity against Mycobacterium kansasii 235/80 after 14 days by microdilution method; type: functional; settings: 235/80, 336 h
[13] = tested on: Lichtheimia corymbifera; experiment: Antifungal activity against Absidia corymbifera 272 after 24 to 48 hrs by broth dilution method; type: functional, organism-based
[14] = tested on: Staphylococcus aureus; experiment: Antibacterial activity against methicillin-resistant Staphylococcus aureus H 5996/08 after 24 hrs by broth microdilution method; type: functional; settings: H 5996/08, 24 h
[15] = tested on: Mycobacterium kansasii; experiment: Antimycobacterial activity against Mycobacterium kansasii 235/80 after 7 days by microdilution method; type: functional; settings: 235/80, 168 h
[16] = Selectivity index, ratio of IC50 for human HepG2 cells to MIC for Staphylococci
[17] = tested on: Mycobacterium kansasii; experiment: Antimycobacterial activity against Mycobacterium kansasii 6509/96 after 14 days by microdilution method; type: functional; settings: 6509/96, 336 h
[18] = tested on: Staphylococcus aureus; experiment: Antibacterial activity against Staphylococcus aureus CCM 4516/08 after 24 hrs by broth microdilution method; type: functional; settings: CCM 4516/08, 24 h
[19] = tested on: Nakaseomyces glabratus; experiment: Antifungal activity against Candida glabrata 20/I after 24 to 48 hrs by broth dilution method; type: functional, organism-based
[20] = tested on: Trichophyton mentagrophytes; experiment: Antifungal activity against Trichophyton mentagrophytes 445 after 24 to 48 hrs by broth dilution method; type: functional, organism-based
[21] = tested on: Staphylococcus epidermidis; experiment: Antibacterial activity against Staphylococcus epidermidis H 6966/08 after 24 hrs by broth microdilution method; type: functional; settings: H 6966/08, 24 h
[22] = tested on: Pichia kudriavzevii; experiment: Antifungal activity against Candida krusei E28 after 24 to 48 hrs by broth dilution method; type: functional, organism-based
[23] = tested on: HepG2; experiment: Cytotoxicity against human HepG2 cells after 72 hrs by MTT assay; type: cell-based; settings: HepG2, 72 h
[24] = tested on: Aspergillus fumigatus; experiment: Antifungal activity against Aspergillus fumigatus 231 after 24 to 48 hrs by broth dilution method; type: functional, organism-based
[25] = tested on: Mycobacterium kansasii; experiment: Antimycobacterial activity against Mycobacterium kansasii 6509/96 after 7 days by microdilution method; type: functional; settings: 6509/96, 168 h
[26] = tested on: Mycobacterium kansasii; experiment: Antimycobacterial activity against Mycobacterium kansasii 235/80 after 21 days by microdilution method; type: functional; settings: 235/80, 504 h
[27] = tested on: Enterococcus sp.; experiment: Antibacterial activity against Enterococcus sp. J 14365/08 after 48 hrs by broth microdilution method; type: functional; settings: J 14365/08, 48 h
[28] = tested on: Staphylococcus aureus; experiment: Antibacterial activity against Staphylococcus aureus CCM 4516/08 after 48 hrs by broth microdilution method; type: functional; settings: CCM 4516/08, 48 h
[29] = tested on: Mycobacterium avium; experiment: Antimycobacterial activity against INH,RIF,OFX,EMB-resistant Mycobacterium avium 330/88 after 14 days by microdilution method; type: functional; settings: 330/88, 336 h
[30] = tested on: Mycobacterium kansasii; experiment: Antimycobacterial activity against Mycobacterium kansasii 6509/96 after 21 days by microdilution method; type: functional; settings: 6509/96, 504 h
[31] = tested on: Mycobacterium tuberculosis; experiment: Antimycobacterial activity against Mycobacterium tuberculosis H37Rv 331/88 after 21 days by microdilution method; type: functional; settings: H37Rv 331/88, 504 h
[32] = tested on: Trichosporon asahii; experiment: Antifungal activity against Trichosporon asahii 1188 after 24 hrs by broth microdilution method; type: functional; settings: Trichosporon asahii, 1188, 24 h
[33] = in vitro; settings: human, HepG2 cells
Description: Selectivity index, ratio of IC50 for human HepG2 cells to MIC for Mycobacterium kansasii 6509/96

[34] = Selectivity index, ratio of IC50 for human HepG2 cells to MIC for Staphylococcus aureus CCM 4516/08

Row | SMILES | MIC [2] | MIC [3] | MIC [4] | selectivity ratio [7] | MIC [8] | MIC [9] | MIC [12] | MIC [14] | MIC [15] | MIC [17] | MIC [18] | MIC [21] | IC50 [23] | MIC [25] | MIC [26] | MIC [27] | MIC [28] | MIC [29] | MIC [30] | MIC [31] | other results
1 | O=C(Oc1ccc(Cl)cc1C(=O)Nc1ccc(Cl)c(Cl)c1)c1ccc([N+](=O)[O-])cc1 | 0.5 µM (≈ 0.233 µg/mL) | 8 µM (≈ 3.73 µg/mL) | 0.49 µM (≈ 0.228 µg/mL) | > 50 | 0.49 µM (≈ 0.228 µg/mL) | 62.5 µM (≈ 29.1 µg/mL) | 4 µM (≈ 1.86 µg/mL) | 0.49 µM (≈ 0.228 µg/mL) | 2 µM (≈ 0.931 µg/mL) | 4 µM (≈ 1.86 µg/mL) | 0.49 µM (≈ 0.228 µg/mL) | 0.49 µM (≈ 0.228 µg/mL) | > 50 µM | 2 µM (≈ 0.931 µg/mL) | 4 µM (≈ 1.86 µg/mL) | > 125 µM | 0.49 µM (≈ 0.228 µg/mL) | 8 µM (≈ 3.73 µg/mL) | 4 µM (≈ 1.86 µg/mL) | 1 µM (≈ 0.466 µg/mL) | IC50 [1]: 3.55 µM; MIC [5]: > 125 µM; Selectivity Index [6]: >6.25; Activity [10]: inactive; Activity [11]: inactive; Activity [13]: inactive; Selectivity Index [16]: >102; Activity [19]: inactive; Activity [20]: inactive; Activity [22]: inactive; Activity [24]: inactive; MIC [32]: 31.2 µM (≈ 14.6 µg/mL)
2 | NNC(=O)c1ccncc1 [ISONIAZID] | 0.5 µM (≈ 0.0686 µg/mL) | > 250 µM | – | > 250 | – | – | > 250 µM | – | > 250 µM | 4 µM (≈ 0.549 µg/mL) | – | – | > 250 µM | 2 µM (≈ 0.274 µg/mL) | > 250 µM | – | – | > 250 µM | 4 µM (≈ 0.549 µg/mL) | 0.5 µM (≈ 0.0686 µg/mL) | selectivity ratio [33]: ≥ 31.3
3 | CC1(C)S[C@@H]2[C@H](NC(=O)Cc3ccccc3)C(=O)N2[C@H]1C(=O)O [PENICILLIN G] | – | – | 125 µM (≈ 41.8 µg/mL) | – | 250 µM (≈ 83.6 µg/mL) | 7.81 µM (≈ 2.61 µg/mL) | – | 62.5 µM (≈ 20.9 µg/mL) | – | – | 0.98 µM (≈ 0.328 µg/mL) | 250 µM (≈ 83.6 µg/mL) | > 10000 µM | – | – | 15.6 µM (≈ 5.22 µg/mL) | 0.98 µM (≈ 0.328 µg/mL) | – | – | – | Selectivity Index [34]: >10204
4 | O=C(Oc1ccc(Cl)cc1C(=O)Nc1ccc(Cl)c(Cl)c1)c1ccc(Br)cc1 | 1 µM (≈ 0.5 µg/mL) | 8 µM (≈ 4 µg/mL) | 0.49 µM (≈ 0.245 µg/mL) | > 50 | 0.49 µM (≈ 0.245 µg/mL) | 31.2 µM (≈ 15.6 µg/mL) | 4 µM (≈ 2 µg/mL) | 0.49 µM (≈ 0.245 µg/mL) | 2 µM (≈ 0.999 µg/mL) | 4 µM (≈ 2 µg/mL) | 0.49 µM (≈ 0.245 µg/mL) | 0.49 µM (≈ 0.245 µg/mL) | > 50 µM | 1 µM (≈ 0.5 µg/mL) | 4 µM (≈ 2 µg/mL) | 500 µM (≈ 250 µg/mL) | 0.49 µM (≈ 0.245 µg/mL) | 8 µM (≈ 4 µg/mL) | 4 µM (≈ 2 µg/mL) | 1 µM (≈ 0.5 µg/mL) | IC50 [1]: 2.5 µM; MIC [5]: > 500 µM; Selectivity Index [6]: >6.25; Activity [10]: inactive; Activity [11]: inactive; Activity [13]: inactive; Selectivity Index [16]: >102; Activity [19]: inactive; Activity [20]: inactive; Activity [22]: inactive; Activity [24]: inactive; MIC [32]: 500 µM (≈ 250 µg/mL)
